Patent publication US11628169B2, “Therapeutic drug for motor complications in Parkinson's disease” (Sumitomo Pharma Co., Ltd., priority 2020, dated 2023)

Columns and labels:
[1] = tested on: 6-OHDA-lesioned rats; experiment: Prevention/suppression of dyskinesia-like symptoms during repeated levodopa administration; format: in vivo, rat; conditions: vs solvent group; for increase in total AIMs score associated with repeated administration of levodopa: days 3, 5, 9, 15
Experimental: The prepared solution was used after injection into an ALZET® Osmotic Pump MODEL 2ML2 (4.53 μL/hour; DURECT).
6-OHDA-lesioned rats were assigned to each administration group using the number of apomorphine hydrochloride hemihydrate induced rotations and body weight as indicators. […] The osmotic pump implanted subcutaneously was retrieved after the observation and evaluation of behavior on day 15. The behavior was also observed and evaluated on the following day (day 16 of repeated administration of levodopa).
The test results were statistically analyzed by comparison with the solvent administration group using Steel test with the total AIMs score on day 16 of repeated levodopa administration as the parameter. * indicates p<0.05 and ** indicates p<0.01, meaning that there is a significant difference compared to the solvent administration group.

[2] = tested on: PD-LID rat model; experiment: Dyskinesia-like symptom (AIMs) score in PD-LID rat model; format: in vivo
[3] = oral 67 mg/kg as free form (100 mg/kg as citrate)

tandospirone citrate
increase in total AIMs score associated with repeated administration of levodopa ([1]; continuous subcutaneous infusion 30 mg/mL (mean of 0.41 mg/kg/hour)): suppressed the increase in total AIMs score | total AIMs score on the day after completion of administration (day 16) ([1]; continuous subcutaneous infusion 30 mg/mL or 60 mg/mL, pump retrieved day 15): significantly lower | increase in total AIMs score associated with repeated administration of levodopa ([1]; continuous subcutaneous infusion 60 mg/mL (mean of 0.83 mg/kg/hour)): suppressed the increase in total AIMs score | dyskinesia-like symptoms (total AIMs score in 3 hours) ([2]; continuous subcutaneous infusion 60 mg/mL (mean 0.78 mg/kg/hour), day 13 of implanting the pump, vs solvent group): significant improvement in dyskinesia-like symptoms | (i) Degree of improvement in indicator of dyskinesia symptom (total AIMs score in 3 hours, solvent minus tandospirone group) ([2]; oral 6.7 mg/kg as free form (10 mg/kg as citrate)): significant change in the total AIMs score was not observed | (i) Degree of improvement in indicator of dyskinesia symptom (total AIMs score in 3 hours, solvent minus tandospirone group) ([2]; oral 20 mg/kg as free form (30 mg/kg as citrate)): significant change in the total AIMs score was not observed | (ii) Indicator of rebound symptom of dyskinesia (total dyskinesia-like symptom score in 100 to 180 minutes, solvent minus tandospirone group) ([2]; oral 20 mg/kg as free form (30 mg/kg as citrate), experiment printed as (FIG. 7)): significant increase in the total AIMs score | (ii) Indicator of rebound symptom of dyskinesia (total dyskinesia-like symptom score in 100 to 180 minutes, solvent minus tandospirone group) ([2]; oral 20 mg/kg as free form (30 mg/kg as citrate), experiment printed as (FIGS. 8A-8B)): significant increase in the total AIMs score | (i) Degree of improvement in indicator of dyskinesia symptom (total AIMs score in 3 hours, solvent minus tandospirone group) [2, 3]: significant change in the total AIMs score was not observed | (ii) Indicator of rebound symptom of dyskinesia (total dyskinesia-like symptom score in 100 to 180 minutes, solvent minus tandospirone group) [2, 3]: significant increase in the total AIMs score
